Test results taken from PubChem BioAssay AID463204 (Broad Institute, 2010).
Calls of active or inactive are those of the source.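 How the source made its calls: active means AC50 no more than ten times the top concentration tested, that is within one log above it; inconclusive means flat curve fit with activity between 30% and 70%, or invalid poor fit; inactive means AC50 beyond ten times the top tested dose.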

tested on: S. cerevisiae Mot1-301 ts growth rescue, BacTiter-Glo ATP luminescence; test: growth rescue of Mot1-301 ts yeast, confirmation, SUMOylation pathway inhibitor project, whole organism, S. cerevisiae, Mot1-301 ts mutant, luminescence, dose retest (AID 463204);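 further: growth at restrictive 38.5 degrees C of Mot1-301 OY566 strain; actives raise luminescence by restoring growth of the ts mutant at high temperature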

SMILES | AC50
COc1ccc2cc(C#N)c(Nc3cccc(F)c3)nc2c1 | > 42 µM (inactive)
Cc1c(NC(=O)CN2C(=O)NC(C)(c3ccc(OC(F)F)cc3)C2=O)c(=O)n(-c2ccccc2)n1C (stereo unspecified) | > 42 µM (inactive)
CC(C)C(OC(=O)CN1C(=O)COc2ccccc21)C(=O)NC1CCCC1 (stereo unspecified) | > 42 µM (inactive)
Cc1ccccc1-c1nnc(CN2CCC(C)CC2)o1 | > 42 µM (inactive)
Cc1cc(C)c2cc(C)c3nnc(SCC(=O)NCc4ccc5c(c4)OCO5)n3c2c1 | > 42 µM (inactive)
CS(=O)(=O)Nc1ccccc1C(=O)NCCSCc1ccccc1 | > 42 µM (inactive)
CCc1ccc(S(=O)(=O)NCc2cccnc2)cc1 | > 42 µM (inactive)
CCOc1ncccc1C(=O)OCC(=O)N(CC)c1ccccc1 | > 42 µM (inactive)
O=C(N/N=C/c1ccccc1)c1[nH]c2ccc(Br)cc2c1-c1ccccc1 | > 42 µM (inactive)
CC(C)COc1ccc(C(=O)Nc2ccc([N+](=O)[O-])cc2)cc1 | > 42 µM (inactive)
CCN(CC)c1ccc(Nc2cc3n(c(=O)n2)CCc2cc(OC)c(OC)cc2-3)cc1 | > 42 µM (inactive)
Cc1ccc(C)c(NC(NC(=O)c2ccccn2)C(Cl)(Cl)Cl)c1 (stereo unspecified) | > 42 µM (inactive)
O=C(COc1cccc2cccnc12)N1CCc2ccccc21 | > 42 µM (inactive)
Cc1ccc(S(=O)(=O)/N=C(/Nc2ccc([N+](=O)[O-])cc2[N+](=O)[O-])c2ccccc2)cc1 | 15.8 µM
CCOC(=O)C1CCN(Cc2ccc(OCc3ccccc3)cc2)CC1 | > 42 µM (inactive)
CC1(C)C=C(c2ccc(O)cc2)CC(C)(C)N1 | > 42 µM (inactive)
O=C(O)CSc1ncnc2sc(-c3ccccc3)cc12 | > 42 µM (inactive)
O=C1CN(C(=O)c2ccccc2F)C(c2ccccc2)c2cc(Cl)ccc2N1 (stereo unspecified) | 1.84 µM
CC(=O)c1cccc(CN2CCCC(N3CCN(c4ccccc4F)CC3)C2)c1 (stereo unspecified) | > 42 µM (inactive)
C=C(C)Cc1c(C)c(C#N)c2[nH]c3ccccc3n2c1=O | > 42 µM (inactive)
O=C(O)COc1ccc(Br)cc1/C=N\Nc1ccccn1 | > 42 µM (inactive)
Cc1c(N=Cc2cc(Br)cc(Br)c2O)cccc1C(=O)O | 3.14 µM
COc1ccc(NC(=O)c2ccc(S(=O)(=O)N(C)c3ccccc3)cc2)cn1 | > 42 µM (inactive)
CCOC(=O)N1CCN(c2cc3[nH]c(=S)[nH]c3cc2F)CC1 | > 42 µM (inactive)
CC(C)(C)c1cc(NCCCn2ccnc2)n2ncc(-c3ccc(Cl)cc3)c2n1 | 5.57 µM
CC(=O)N(C)c1ccc(N2CCOCC2)c2c1C(=O)c1ccccc1C2=O | > 42 µM (inactive)

SMILES | AC50
CC(=O)Nc1cccc(C(=O)OCC(=O)NCc2ccc(F)cc2)c1 | > 42 µM (inactive)
CCCCn1c2c(c(=O)n(C)c1=O)C(c1ccc(OC)cc1)N1CCCCCC1=N2 (stereo unspecified) | > 42 µM (inactive)
CCN(CC)c1ncnc2ccc(Br)cc12 | > 42 µM (inactive)
O=C(CSc1nccc(=O)[nH]1)c1cc2ccccc2o1 | > 42 µM (inactive)
COc1ccc(NS(=O)(=O)c2ccc(OCC(=O)N3CCOCC3)cc2)cc1Cl | > 42 µM (inactive)
Cc1cc(Nc2nc3c(c(=O)n(C)c(=O)n3C)n2C)n(-c2ccc(Cl)cc2)n1 | > 42 µM (inactive)
CC(C)(C)C(=O)Nc1ccc(C(=O)NCc2cccnc2)cc1 | > 42 µM (inactive)
O=C(CSc1cccc[n+]1[O-])N1CCc2ccccc21 | > 42 µM (inactive)
Cc1cc(NC(=O)CC2CCCC2)ccc1Br | > 42 µM (inactive)
O=C(COC(=O)CSc1ccc([N+](=O)[O-])cc1)NC1CCCCCCC1 | > 42 µM (inactive)
O=C(Nc1cccc(C(=O)Nc2ccc(F)cc2F)c1)c1ccccc1 | > 42 µM (inactive)
Cc1nc2sc(C(c3ccccc3)N3CCC(O)CC3)c(O)n2n1 (stereo unspecified) | > 42 µM (inactive)
Cc1cc(C#Cc2c(-c3ccccc3)n(C)c3ccccc23)ccc1F | > 42 µM (inactive)
O=C(NCC1CCCO1)C1CC(c2ccc(Cl)c(Cl)c2)=NO1 (stereo unspecified) | > 42 µM (inactive)
Cc1ccccc1Nc1cc(=O)oc2ccccc12 | > 42 µM (inactive)
COc1ccc(-c2cc(=O)c3cc(O)ccc3o2)cc1 | > 42 µM (inactive)
O=C(O)CCC(=O)N1N=C(c2c(-c3ccccc3)c3cc(Cl)ccc3[nH]c2=O)CC1c1ccco1 (stereo unspecified) | > 42 µM (inactive)
COC(=O)CCC(=O)OC1(C)C(=O)C=C2C=C(C3CC3)N(Cc3ccc4c(c3)OCO4)C=C2C1=O (stereo unspecified) | > 42 µM (inactive)
N/C(=N\N=C\c1ccc(O)cc1)c1nonc1N | > 42 µM (inactive)
CCCn1c(=O)c2ccccc2n2c(SCC(=O)N3CCc4ccccc4C3)nnc12 | > 42 µM (inactive)
COc1ccc(C)cc1NC(=O)C12CCC(C)(C(=O)O1)C2(C)C (stereo unspecified) | > 42 µM (inactive)
C[C@H](NC(=O)OC(C)(C)C)C(=O)NCC1CCC(C(=O)N[C@@H](Cc2ccccc2)C(=O)O)CC1 (stereo partly specified) | > 42 µM (inactive)
Cc1ccc(N(C(C)C(=O)O)S(=O)(=O)c2c(C)n[nH]c2C)cc1 (stereo unspecified) | > 42 µM (inactive)
Cc1cccc(/C=N/NC(=O)Cc2cccs2)c1 | > 42 µM (inactive)
O=c1oc2cc(S(=O)(=O)NCCCO)ccc2c2ccc(S(=O)(=O)NCCCO)cc12 | > 42 µM (inactive)
CCS(=O)(=O)N1CCCC(C(=O)NCc2cccnc2)C1 (stereo unspecified) | > 42 µM (inactive)

SMILES | AC50
CCS(=O)(=O)N1CCC(C(=O)NCCCN2CCN(c3ccccc3F)CC2)CC1 | > 42 µM (inactive)
COc1ccc(OC(=O)c2ccc(Cl)cc2)c(C(C)=O)c1 | > 42 µM (inactive)
C=C(C)C(=O)Nc1cccnc1Oc1ccc(F)cc1F | > 42 µM (inactive)
CC1CCN(Cc2nc3c(c(=O)n(C)c(=O)n3C)n2CCc2ccccc2)CC1 | > 42 µM (inactive)
CCOC(=O)c1cc([N+](=O)[O-])c([N+](=O)[O-])cc1NC(C)=O | 8.71 µM
CCCCCC(=O)NNC1=NCC(Cc2cccc(Cl)c2)S1 (stereo unspecified) | > 42 µM (inactive)
COCCCN1C(=O)c2ccc(C(=O)Nc3ccc(OC)cc3OC)cc2C1=O | > 42 µM (inactive)
C=CCn1c(CCC)nc2ccccc21 | > 42 µM (inactive)
CCCN1C(=O)c2[nH]nc(-c3cc(Cl)c(C)cc3O)c2C1c1ccc(O)c(OC)c1 (stereo unspecified) | > 42 µM (inactive)
CC(=O)Nc1ccc(S(=O)(=O)N(C)CC(=O)Nc2ccc(Br)cc2F)cc1 | > 42 µM (inactive)
CCn1c(SC(=O)NC2CCCCC2)nnc1-c1cccs1 | 11.6 µM
CCCNCC(O)COc1ccccc1C(=O)CCc1ccccc1 (stereo unspecified) | > 42 µM (inactive)
O=[N+]([O-])c1ccccc1CN1CC=C(c2ccc(F)cc2)CC1 | > 42 µM (inactive)
COc1ccc(-n2nc(C(=O)NCC(=O)N3CCCC3)c3ccccc3c2=O)c(OC)c1 | > 42 µM (inactive)
CCOC(=O)N1CCN(C(=O)c2ccccc2-c2ccccc2)CC1 | > 42 µM (inactive)
O=C(Cc1ccc(F)cc1)Nc1nc(-c2ccc(F)cc2)cs1 | > 42 µM (inactive)
O=C(Nc1cccc(Cl)c1)OCc1cncs1 | > 42 µM (inactive)
C=CCn1c(=N)c(C(=O)NCCCOC)cc2c(=O)n3ccccc3nc21 | > 42 µM (inactive)
O=C(Nc1ccc2c(c1)oc1ccccc12)C1CC1 | > 42 µM (inactive)
CC(C)N=C(NS(=O)(=O)NC(=O)c1ccccc1)c1ccccc1 | > 42 µM (inactive)
COc1cc(/C=C(\NC(=O)c2ccccc2)C(=O)Nc2nccs2)ccc1OC(C)=O | > 42 µM (inactive)
COc1ccc(C(=O)OCC(=O)c2ccccc2)cc1S(=O)(=O)N1CCOCC1 | > 42 µM (inactive)
CCOC(=O)C1CC(c2ccccc2)=NNC1=O (stereo unspecified) | > 42 µM (inactive)
COc1ccc(/C=N\Nc2ccc([N+](=O)[O-])cc2)c(C(=O)O)c1OC | > 42 µM (inactive)
CCc1ccc2nc(-c3cccc(C)c3)nc(SCC(=O)NCC3CCCO3)c2c1 (stereo unspecified) | > 42 µM (inactive)
COc1ccc(C2SCC(=O)Nc3c2c(=O)[nH]n3C2CCCCC2)cc1 (stereo unspecified) | > 42 µM (inactive)

SMILES | AC50
Cc1nc(NC(=O)CSc2nc(N)cc(N)n2)sc1C | > 42 µM (inactive)
O=C(Oc1ccc2c(c1)OCO2)c1cccs1 | > 42 µM (inactive)
CC1(C)c2[nH]c3ccccc3c2C[C@H]2C(=O)N(Cc3cccc(F)c3)C(=O)N21 | > 42 µM (inactive)
Cc1c(C2(O)CCCCC2)[nH]c2ccc(C#N)cc12 | 41.9 µM
O=C(C[n+]1ccc(C(=O)N/N=C/c2ccc(Cl)cc2Cl)cc1)c1ccccc1 | > 42 µM (inactive)
Cc1ccc(NC(=O)CCS(=O)(=O)c2ccc3nc(C)sc3c2)cc1 | > 42 µM (inactive)
CCC(=O)c1c[nH]c(C(=O)NCCCn2ccnc2)c1 | > 42 µM (inactive)
CCn1nc(CC(=O)Nc2ccc(-n3cnnn3)c(C)c2)c2ccccc2c1=O | > 42 µM (inactive)
COc1ccc(/C=C2/SC(=O)N(NS(=O)(=O)c3ccccc3)C2=S)cc1OC | > 42 µM (inactive)
O=C(/C=C/NNC(=O)c1ccc(Br)cc1)c1ccccc1 | > 42 µM (inactive)
CC(C)Oc1ccc(CCC(=O)NNC(=O)c2ccccc2C(=O)O)cc1 | > 42 µM (inactive)
CS(=O)(=O)N(CCc1ccccc1)CC(=O)NCc1cccnc1 | > 42 µM (inactive)
CC1CCC(C(C)C)C(OC(=O)COC(=O)c2cccn2C)C1 (stereo unspecified) | > 42 µM (inactive)
CCOCCCNC(=O)C(c1ccc(OC)cc1)N(Cc1cccs1)C(=O)c1ccccn1 (stereo unspecified) | > 42 µM (inactive)
CN(C)CCNC(=O)c1c(O)c2c([nH]c1=O)CCCC2 | > 42 µM (inactive)
Cc1ccc(C(=O)NCC(=O)Nc2ccc3c(c2)OCCO3)cc1 | > 21 µM (inactive)
O=C(O)COc1ccc(=O)n(-c2ccccc2)n1 | > 42 µM (inactive)
NN1C(=O)NC(c2ccccc2)(c2ccccc2)C1=O | > 42 µM (inactive)
O=C(/C=C/c1cccc([N+](=O)[O-])c1)NCCSCc1ccc(Cl)cc1Cl | > 42 µM (inactive)
CCN(CCn1cccn1)C(=O)C1CCC(=O)N(CCc2cccc(F)c2)C1 (stereo unspecified) | > 42 µM (inactive)
Cc1ccc(C(=O)Nc2ccc3c(c2)OCCO3)c(Cl)c1 | > 42 µM (inactive)
CCCC(O)(c1ccc(Br)cc1)C(CN1CCOCC1)c1ccc(Cl)cc1 (stereo unspecified) | 5.13 µM
O=C(Nc1ccsc1C(=O)O)c1cccc(C(F)(F)F)c1 | > 42 µM (inactive)
